Data: patent US20240325369A1 (priority 2021, published 2024)

Protocol: Efficacy objectives were evaluated for subjects meeting the biomarker selection criteria described in the protocol. All subjects were monitored for safety during the study period, and up to 30 days after the last dose of study drug. Treatment continued until disease progression, unacceptable toxicity, death, or termination of the study by the sponsor.
Serum PSA, CTCs, survival status, SSEs were also collected. PROs included the BPI-SF, FACT-P, and EQ-5D-5L questionnaires. Safety assessments included recording of AEs, physical examinations, vital signs, ECGs, and ECOG performance status. Clinical laboratory testing included hematology, blood chemistry, and liver function parameters. Blood samples were also taken for pharmacokinetic assessments and biomarker analysis. Archival or recently collected tumor tissue samples were obtained from consenting subjects for biomarker identification.
All AEs reported on or after the date of first dose until 30 days (inclusive) after the last dose of study drug were considered treatment-emergent and were summarized. […] In addition. AE incidence rates were also summarized by severity and relationship to study drug. Treatment-related AEs were those judged by the investigator to beat least possibly related to the study drug. […] Deaths that occurred within 30 days after the last dose of study drug were defined as on-study deaths. No inferential statistical analyses were performed in analyzing the safety data.

[1] = safety population (289 subjects)
[2] = safety population (289 subjects), 300 mg once daily
[3] = safety population (289 subjects), data cutoff 26 Jan. 2021
[4] = safety population, 300 mg once daily

Question: With `NC(=O)c1cccc2cn(-c3ccc([C@@H]4CCCNC4)cc3)nc12` [Niraparib, 2-[4-[(3S)-piperidin-3-yl]phenyl]-2H-indazole-7-carboxamide] as the compound, how does the “Treatment discontinuation because of adverse events (reason for discontinuation)” value (289 enrolled subjects, clinical data cutoff 26 Jan. 2021) read?
Answer: 14%

Question: What about the Safety profile (heavily pre-treated prostate cancer population) of the same compound?
Answer: manageable

Question: What about the “Deaths due to treatment-emergent AEs, % of subjects” value [1] of the same compound?
Answer: 5.5%

Question: And the “Deaths due to treatment-emergent AEs, number of subjects” value [1]?
Answer: 16

Question: And the “Deaths within 30 days of the last dose due to progressive disease, % of subjects” value [1]?
Answer: 6%

Question: What about the “Deaths within 30 days of the last dose due to progressive disease, number of subjects” value [1] of the same compound?
Answer: 17

Question: What about the “AEs leading to treatment discontinuation, % of subjects” value [2] of the same compound?
Answer: 22.8%

Question: And the “Adverse event of clinical interest (all grades): anemia” value [2]?
Answer: 54.0%

Question: What about the “Adverse event of clinical interest (all grades): febrile neutropenia” value [2] of the same compound?
Answer: 1.0%

Question: And the “Adverse event of clinical interest (all grades): neutropenia” value [2]?
Answer: 19.4%

Question: And the “Adverse event of clinical interest (all grades): thrombocytopenia” value [2]?
Answer: 34.3%

Question: And the “Grade 3 or 4 AE: anemia” value [2]?
Answer: 32.9%

Question: What about the “Grade 3 or 4 AE: fatigue” value [2] of the same compound?
Answer: 6.6%

Question: What about the “Grade 3 or 4 AE: nausea” value [2] of the same compound?
Answer: 5.2%

Question: What about the “Grade 3 or 4 AE: neutropenia” value [2] of the same compound?
Answer: 9.7%

Question: And the “Grade 3 or 4 AE: thrombocytopenia” value [2]?
Answer: 16.3%

Question: What about the “Grade 3 or 4 AEs, % of subjects” value [2] of the same compound?
Answer: 75.1%

Question: And the “Grade 4 AE: thrombocytopenia, % of subjects” value [2]?
Answer: 8.0%

Question: And the “Grade 4 AE: thrombocytopenia, number of subjects” value [2]?
Answer: 23

Question: What about the “Subjects reporting SAEs” value [2] of the same compound?
Answer: 46.4%

Question: And the “Subjects who experienced at least 1 AE” value [2]?
Answer: 99.7%

Question: What about the “Subjects who reported a related AE” value [2] of the same compound?
Answer: 90%

Question: What about the “Deaths within 30 days of the last dose of study drug, % of subjects” value [3] of the same compound?
Answer: 9%

Question: What about the “Deaths within 30 days of the last dose of study drug, number of subjects” value [3] of the same compound?
Answer: 26

Question: And the “Grade 3 or 4 clinical chemistry value: hyperkalemia” value [4]?
Answer: 2.5%

Question: And the “Grade 3 or 4 clinical chemistry value: hyponatremia” value [4]?
Answer: 3.2%

Question: What about the “Grade 3 or 4 clinical chemistry value: increased GGT” value [4] of the same compound?
Answer: 5.0%

Question: What about the “Grade 3 or 4 clinical chemistry value: increased alkaline phosphatase” value [4] of the same compound?
Answer: 2.5%

Question: And the “Grade 3 or 4 hematology value: anemia” value [4]?
Answer: 17.0%

Question: And the “Grade 3 or 4 hematology value: decreased lymphocyte count” value [4]?
Answer: 18.4%
